Results: patent US20250215030A1, “STAT MODULATORS AND USES THEREOF” (Recludix Pharma, Inc., priority 2022, published 2025)

Tests used:
pSTAT6 (pY641-STAT6) = molecular target: T1, pSTAT6 (pY641-STAT6) (Homo sapiens, UniProt P42226); assay: MSD-pSTAT-PBMC Assay (pSTAT6, IL-4 stimulated); format: cell-based; settings: compound 3 hrs, then 1 ng/mL IL-4 for 10 min
T1 construct: host or cells: cryopreserved PBMC
T1 sequence (P42226 1-847): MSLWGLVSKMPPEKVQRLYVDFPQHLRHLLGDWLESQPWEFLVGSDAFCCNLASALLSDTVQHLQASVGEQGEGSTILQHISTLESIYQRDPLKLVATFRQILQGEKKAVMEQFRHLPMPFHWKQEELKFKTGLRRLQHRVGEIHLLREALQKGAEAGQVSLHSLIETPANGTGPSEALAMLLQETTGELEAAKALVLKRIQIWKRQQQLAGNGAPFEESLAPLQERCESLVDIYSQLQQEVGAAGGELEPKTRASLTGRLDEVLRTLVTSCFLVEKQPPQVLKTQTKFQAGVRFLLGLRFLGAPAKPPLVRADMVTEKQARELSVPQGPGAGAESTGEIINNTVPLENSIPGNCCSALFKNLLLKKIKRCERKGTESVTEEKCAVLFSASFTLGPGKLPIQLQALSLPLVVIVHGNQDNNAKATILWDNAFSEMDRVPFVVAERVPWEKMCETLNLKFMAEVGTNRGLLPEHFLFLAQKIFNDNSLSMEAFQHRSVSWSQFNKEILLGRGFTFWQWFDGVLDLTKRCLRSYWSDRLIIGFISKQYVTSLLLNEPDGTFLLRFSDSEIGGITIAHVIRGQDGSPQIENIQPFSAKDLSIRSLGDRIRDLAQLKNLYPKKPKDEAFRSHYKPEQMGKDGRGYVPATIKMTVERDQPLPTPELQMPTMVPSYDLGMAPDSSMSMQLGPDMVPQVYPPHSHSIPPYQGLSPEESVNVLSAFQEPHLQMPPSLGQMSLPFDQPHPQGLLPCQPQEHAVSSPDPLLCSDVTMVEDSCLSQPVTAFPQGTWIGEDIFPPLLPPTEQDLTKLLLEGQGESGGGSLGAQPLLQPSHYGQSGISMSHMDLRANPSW
Description: Cryopreserved Peripheral Blood Mononuclear Cells (PBMC) are from AllCells. Recombinant Human IL-4 and IL-6 are from Peprotech. Mouse monoclonal anti-STAT3 antibody, rabbit monoclonal anti-pY705-STAT3 antibody, rabbit monoclonal Anti-pY641-STAT6 antibody, and lysis buffer are from Cell Signaling Technology (CST). Mouse monoclonal anti-STAT6 antibody is from BioLegend. Assay plates, blocker, and anti-rabbit secondary antibody are from Meso Scale Discovery (MSD).
Cryopreserved PBMCs were thawed out and allowed to recover overnight in IMDM+10% heat-inactivated FBS prior to plating 50,000 (STAT3) or 25,000 (STAT6) cells per well in 96-well U-bottom tissue culture plates. Cells were treated with compound for 3 hrs, then stimulated with 10 ng/mL IL-6 (STAT3) or 1 ng/mL IL-4 (STAT6) for 10 min. Cells were then spun down and washed with ice-cold PBS prior to lysing the cell pellet with 1× lysis buffer (CST) with 1× HALT protease and phosphatase inhibitor cocktail (Thermo). Lysates were transferred to and incubated overnight at 4° C. with shaking in QuickPlex 96-well high bind assay plates (MSD) pre-coated overnight with 30 μL per well of 0.6 μg/mL mouse monoclonal anti-STAT3 antibody (STAT3) or 2 μg/mL mouse monoclonal anti-STAT6 antibody (STAT6) in 1×PBS, and pre-blocked for 1 hour with 3% Blocker-A (MSD). Captured protein in the assay plates were then washed and probed with 25 μL per well of 0.25 μg/ml rabbit monoclonal anti-pY705-STAT3 antibody (STAT3) or 0.18 μg/ml rabbit monoclonal Anti-pY641-STAT6 antibody (STAT6) in 1% Blocker-A for 1 hour at room temperature with shaking, then washed and probed with 25 ul per well of 1 ug/mi Sulfo-TAG Labeled Goat Anti-Rabbit Antibody (MSD) in 1% Blocker-A for 1 hour at room temperature with shaking. Assay plates were then washed and 150 μL of 1× Read Buffer-T (MSD) was added to each well prior to reading on an SQ120 MSD Plate Reader. Assay signal from each sample was subtracted by the signal from unstimulated control wells and normalized to DMSO control wells. IC50 values were calculated using Graph Pad Prism Dose-Response Nonlinear Regression with variable slope. For both pSTAT3 and pSTAT6 A=≤100 nM; B=>100-1000 nM; C=>1000-3000 nM; and D=>3 μM.

pSTAT3 (pY705-STAT3) = molecular target: T2, pSTAT3 (pY705-STAT3) (Homo sapiens, UniProt P40763); assay: MSD-pSTAT-PBMC Assay (pSTAT3, IL-6 stimulated); format: cell-based; settings: PBMC, compound 3 hrs, then 10 ng/mL IL-6 for 10 min; MSD pY705-STAT3; read-out: pSTAT3
T2 construct: host or cells: cryopreserved PBMC
In short: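 Phospho-STAT levels captured on anti-STAT3 or anti-STAT6 plates and detected with anti-pY705 or anti-pY641 antibodies (MSD read-out). Cryopreserved human PBMCs received compound for 3 h before a 10 min pulse of IL-6 (10 ng/mL, STAT3) or IL-4 (1 ng/mL, STAT6). IC50 fitted after unstimulated-background subtraction and DMSO normalization.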

T2 sequence (P40763 whole entry): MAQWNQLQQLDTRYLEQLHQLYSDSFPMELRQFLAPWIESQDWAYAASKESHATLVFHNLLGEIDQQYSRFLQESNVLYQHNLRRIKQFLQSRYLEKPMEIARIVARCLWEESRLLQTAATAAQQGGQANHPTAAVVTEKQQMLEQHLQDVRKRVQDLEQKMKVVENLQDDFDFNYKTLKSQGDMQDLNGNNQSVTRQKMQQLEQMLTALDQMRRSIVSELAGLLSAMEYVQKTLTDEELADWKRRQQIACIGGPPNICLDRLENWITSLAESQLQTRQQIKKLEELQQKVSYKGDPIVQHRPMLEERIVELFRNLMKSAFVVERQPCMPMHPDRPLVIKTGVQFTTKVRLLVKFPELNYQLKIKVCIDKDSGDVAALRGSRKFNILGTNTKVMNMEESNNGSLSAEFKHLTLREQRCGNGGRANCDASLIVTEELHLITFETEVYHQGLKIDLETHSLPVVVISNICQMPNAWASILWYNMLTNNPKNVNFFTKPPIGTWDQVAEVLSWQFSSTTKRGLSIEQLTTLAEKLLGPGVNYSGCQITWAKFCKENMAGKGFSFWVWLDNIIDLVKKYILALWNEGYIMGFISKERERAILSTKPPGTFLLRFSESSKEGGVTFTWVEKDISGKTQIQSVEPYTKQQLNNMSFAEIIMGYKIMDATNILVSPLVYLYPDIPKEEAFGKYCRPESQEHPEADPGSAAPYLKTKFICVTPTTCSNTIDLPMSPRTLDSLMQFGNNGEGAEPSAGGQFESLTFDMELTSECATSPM

IC50 (pSTAT6 (pY641-STAT6)) [nM] | IC50 (pSTAT3 (pY705-STAT3)) [nM] | SMILES
1000 to 3000 | < 100 | CC(C)CC(=O)SCCOP(=O)(OCOC(=O)OC(C)C)C(F)(F)c1ccc2sc(C(=O)N[C@H]3C[C@@H]4C[C@@H]4C[C@H]4CC[C@@H](C(=O)N5CC(C(=O)N6CCOCC6)C5)N4C3=O)cc2c1 (stereo partly drawn) [Compound 141, S-(2-(((difluoro(2-(((3S,6S,7aS, 8aR,9aR)-3-(3-(morpholine-4-carbonyl)azetidine-1-carbonyl)-5-oxodecahydro-1H-cyclopropa [d]pyrrolo[1,2-a]azocin-6-yl)carbamoyl)benzo[b]thiophen-5-yl)methyl)(((iso-propoxy-carbonyl)oxy)methoxy)phos-phoryl)oxy)ethyl) 3-methylbutane thioate]
1000 to 3000 | < 100 | CC(=O)N1C[C@@H](F)[C@@H](NC(=O)[C@@H]2CC[C@@H]3C[C@@H]4C[C@@H]4C[C@H](NC(=O)c4cc5cc(C(F)(F)P(=O)(OCCSC(=O)CC(C)C)OCCSC(=O)CC(C)C)ccc5s4)C(=O)N32)C1 [Compound 142, S,S′-(((((2-(((3S,6S,7aR, 8aS,9aR)-3-(((3S,4R)-1-acetyl-4-fluoropyrrolidin-3-yl)carbamoyl)-5-oxodecahydro-1H-cyclopropa [d]pyrrolo[1,2-a]azocin-6-yl)carbamoyl)benzo[b]thiophen-5-yl)difluoromethyl)phosphoryl)bis(oxy))bis(ethane-2,1-diyl)) bis(3-methylbutane thioate)]
> 3000 | 100 to 1000 | CC(C)(C)C(=O)SCCOP(=O)(Cc1ccc2sc(C(=O)N[C@H]3C[C@@H]4C[C@@H]4C[C@H]4CC[C@@H](C(=O)N5CC(C(=O)N6CCOCC6)C5)N4C3=O)cc2c1)OCCSC(=O)C(C)(C)C [Compound 144, S,S′-(((((2-(((3S,6S,7aS, 8aR,9aR)-3-(3-(morpholine-4-carbonyl)azetidine-1-carbonyl)-5-oxodecahydro-1H-cyclopropa[d]pyrrolo[1,2-a]azocin-6-yl)carbamoyl)benzo[b]thiophen-5-yl)methyl)phosphoryl)bis(oxy))bis(ethane-2,1-diyl)) bis(2,2-dimethyl-propanethioate)]
1000 to 3000 | < 100 | CC(C)(C)C(=O)OCOP(=O)(OCOC(=O)C(C)(C)C)C(F)(F)c1ccc2sc(C(=O)N[C@H]3C[C@@H]4C[C@@H]4C[C@H]4CC[C@@H](C(=O)N5CC(C(=O)N6CCOCC6)C5)N4C3=O)cc2c1 [Compound 145, (((difluoro(2-(((3S,6S,7aS, 8aR,9aR)-3-(3-(morpholine-4-carbonyl)azetidine-1-carbonyl)-5-oxodecahydro-1H-cyclopropa [d]pyrrolo[1,2-a]azocin-6-yl)carbamoyl)benzo[b]thiophen-5-yl)methyl)phosphoryl)bis(oxy)) bis(methylene) bis(2,2-dimethyl-propanoate)]
> 3000 | > 3000 | CC(C)(CO)C(=O)SCCOP(=O)(Cc1ccc2sc(C(=O)N[C@H]3C[C@@H]4C[C@@H]4C[C@H]4CC[C@@H](C(=O)N5CC(n6ccnc6)C5)N4C3=O)cc2c1)OCCSC(=O)C(C)(C)CO [Compound 146, S,S′-(((((2-(((3S,6S,7aS, 8aR,9aR)-3-(3-(1H-imidazol-1-yl)azetidine-1-carbonyl)-5-oxodecahydro-1H-cyclopropa[d]pyrrolo[1,2-a]azocin-6-yl)carbamoyl)benzo[b]thiophen-5-yl)methyl)phosphoryl)bis(oxy))bis(ethane-2,1-diyl)) bis(3-hydroxy-2,2-dimethyl-propanethioate)]
> 3000 | 100 to 1000 | CC(C)OC(=O)OCOP(=O)(Cc1ccc2sc(C(=O)N[C@H]3C[C@@H]4C[C@@H]4C[C@H]4CC[C@@H](C(=O)N5CC(C(=O)N6CCOCC6)C5)N4C3=O)cc2c1)OCOC(=O)OC(C)C [Compound 148]
> 3000 | 1000 to 3000 | CCCC(=O)SCCOP(=O)(Cc1ccc2sc(C(=O)N[C@H]3C[C@@H]4C[C@@H]4C[C@H]4CC[C@@H](C(=O)N5CC(C(=O)N6CCOCC6)C5)N4C3=O)cc2c1)OCCSC(=O)CCC [Compound 149, S,S′-(((((2-(((3S,6S,7aS, 8aR,9aR)-3-(3-(morpholine-4-carbonyl)azetidine-1-carbonyl)-5-oxodecahydro-1H-cyclopropa[d]pyrrolo[1,2-a]azocin-6-yl)carbamoyl)benzo[b]thiophen-5-yl)methyl)phosphoryl)bis(oxy))bis(ethane-2,1-diyl)) dibutanethioate]
> 3000 | < 100 | CC(C)(C)C(=O)OCOP(=O)(Cc1ccc2sc(C(=O)N[C@H]3C[C@@H]4C[C@@H]4C[C@H]4CC[C@@H](C(=O)N5CC(C(=O)N6CCOCC6)C5)N4C3=O)cc2c1)OCOC(=O)C(C)(C)C [Compound 150, ((((2-(((3S,6S, 7aS,8aR,9aR)-3-(3-morpholine-4-carbonyl)azetidine-1-carbonyl)-5-oxodecahydro-1H-cyclopropa [d]pyrrolo[1,2-a]azocin-6-yl)carbamoyl)benzo [b]thiophen-5-yl)methyl)phosphoryl) bis(oxy)) bis(methylene) bis(2,2-dimethyl-propanoate)]
> 3000 | 100 to 1000 | CC(C)(C)C(=O)SCCOP(=O)(Cc1ccc2sc(C(=O)N[C@H]3C[C@@H]4C[C@@H]4C[C@H]4CC[C@@H](C(=O)N5CC(n6ccnc6)C5)N4C3=O)cc2c1)OCCSC(=O)C(C)(C)C [Compound 151, S,S′-(((((2-(((3S,6S,7aS, 8aR,9aR)-3-(3-(1H-imidazol-1-yl)azetidine-1-carbonyl)-5-oxodecahydro-1H-cyclopropa [d]pyrrolo[1,2-a]azocin-6-yl)carbamoyl)benzo[b]thiophen-5-yl)methyl)phosphoryl)bis(oxy))bis(ethane-2,1-diyl)) bis(2,2-dimethyl-propanethioate)]
100 to 1000 | < 100 | CC(C)OC(=O)OCOP(=O)(OCOC(=O)OC(C)C)[C@@H](F)c1ccc2sc(C(=O)N[C@H]3C[C@H]4C[C@H]4C[C@H]4CC[C@@H](C(=O)N5CC(c6cccnc6)C5)N4C3=O)cc2c1 [Compound 152, ((((R)-fluoro(2-(((3S,6S,7aR, 8aS,9aR)-5-oxo-3-(3-(pyridin-3-yl)azetidine-1-carbonyl)decahydro-1H-cyclopropa[d]pyrrolo[1,2-a]azocin-6-yl)carbamoyl)benzo[b]thiophen-5-yl)methyl)phosphoryl)bis(oxy)) bis(methylene) diisopropyl bis(carbonate)]

SMILES | IC50 (pSTAT6 (pY641-STAT6)) [nM] | IC50 (pSTAT3 (pY705-STAT3)) [nM]
C[C@@H](NP(=O)(Cc1ccc2sc(C(=O)N[C@H]3C[C@@H]4C[C@@H]4C[C@H]4CC[C@@H](C(=O)N5CC(C(=O)N6CCOCC6)C5)N4C3=O)cc2c1)Oc1ccccc1)C(=O)OCc1ccccc1 (stereo partly drawn) [Compound 143, benzyl (((2-(((3S,6S,7aS, 8aR,9aR)-3-(3-(morpholine-4-carbonyl)azetidine-1-carbonyl)-5-oxodecahydro-1H-cyclopropa [d]pyrrolo[1,2-a]azocin-6-yl)carbamoyl)benzo[b]thiophen-5-yl)methyl) (phenoxy)phosphoryl)-D-alaninate] | > 3000 | 100 to 1000
